Experimental data as given in patent US10189836B2, “Therapeutic compounds, compositions and methods of use thereof” (Genentech, Inc., priority 2015, dated 2019).

Experiments:
[1] = biological target: isolated recombinant JAK1 kinase domain (Homo sapiens (Human), UniProt P23458); experiment: JAK1 enzyme assay (Caliper LabChip, Ki); type: biochemical; conditions: isolated recombinant JAK1 kinase domain, 1.5 nM enzyme, ATP 25 μM
[2] = biological target: isolated recombinant JAK2 kinase domain (Homo sapiens (Human), UniProt O60674); experiment: JAK2 enzyme assay (Caliper LabChip, Ki); type: biochemical; conditions: isolated recombinant JAK2 kinase domain, 0.2 nM enzyme, ATP 25 μM
isolated recombinant JAK2 kinase domain, sequence (O60674 849-1124): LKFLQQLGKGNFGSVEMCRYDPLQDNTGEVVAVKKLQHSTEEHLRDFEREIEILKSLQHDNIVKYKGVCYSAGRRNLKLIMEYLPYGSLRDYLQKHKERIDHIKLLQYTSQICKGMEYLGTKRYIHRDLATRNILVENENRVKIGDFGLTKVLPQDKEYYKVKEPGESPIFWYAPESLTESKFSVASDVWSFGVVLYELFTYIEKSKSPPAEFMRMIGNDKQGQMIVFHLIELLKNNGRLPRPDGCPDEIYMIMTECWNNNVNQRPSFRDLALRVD

isolated recombinant JAK1 kinase domain, sequence (P23458 875-1153): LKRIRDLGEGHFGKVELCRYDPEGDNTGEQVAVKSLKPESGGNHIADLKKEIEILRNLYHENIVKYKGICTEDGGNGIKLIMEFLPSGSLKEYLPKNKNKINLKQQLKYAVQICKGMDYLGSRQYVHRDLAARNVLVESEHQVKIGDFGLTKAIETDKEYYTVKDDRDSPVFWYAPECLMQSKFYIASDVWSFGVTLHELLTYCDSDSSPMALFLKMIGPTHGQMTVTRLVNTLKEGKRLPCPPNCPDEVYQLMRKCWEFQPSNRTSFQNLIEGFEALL

| SMILES | Ki [1] [nM] | Ki [2] [nM] |
| --- | --- | --- |
| O=C(Cn1cc(Nc2nc3c(N4CC5CCC(C4)N5C(=O)N4CC(C(F)(F)F)C4)cccn3n2)cn1)N1CCN(C2CSC2)CC1 [Example 94, 1-[4-(thietan-3-yl)piperazin-1-yl]-2-[4-[[8-[8-[3-(trifluoromethyl)azetidine-1-carbonyl]-3,8-diazabicyclo[3.2.1]octan-3-yl]-[1,2,4]triazolo[1,5-a]pyridin-2-yl]amino]pyrazol-1-yl]ethanone] | 0.6 | 0.4 |
| CN1CCN(C(=O)Cn2cc(Nc3nc4c(N5C[C@H]6CC[C@@H](C5)[C@H]6OCc5cnn(C)c5)cccn4n3)cn2)CC1 [Example 95, 1-(4-methylpiperazin-1-yl)-2-[4-[[8-[(1S,5R)-8-[(1-methylpyrazol-4-yl)methoxy]-3-azabicyclo[3.2.1]octan-3-yl]-[1,2,4]triazolo[1,5-a]pyridin-2-yl]amino]pyrazol-1-yl]ethanone] | 2.3 | 5 |
| CN1CCN(C(=O)Cn2cc(Nc3nc4c(N5CC6CCCC(C5)N6C(=O)C5CSC5)cccn4n3)cn2)CC1 [Example 96, 1-(4-methylpiperazin-1-yl)-2-[4-[[8-[9-(thietane-3-carbonyl)-3,9-diazabicyclo[3.3.1]nonan-3-yl]-[1,2,4]triazolo[1,5-a]pyridin-2-yl]amino]pyrazol-1-yl]ethanone] | 0.4 | 0.5 |
| CN1CCN(C(=O)Cn2cc(Nc3nc4c(N5CC6CCCC(C5)N6C(=O)CC5CC(F)(F)C5)cccn4n3)cn2)CC1 [Example 97, 2-(3,3-difluorocyclobutyl)-1-[3-[2-[[1-[2-(4-methylpiperazin-1-yl)-2-oxo-ethyl]pyrazol-4-yl]amino]-[1,2,4]triazolo[1,5-a]pyridin-8-yl]-3,9-diazabicyclo[3.3.1]nonan-9-yl]ethanone] | 0.6 | 0.5 |
| CN1CCN(C(=O)Cn2cc(Nc3nc4c(N5CC6CCC(C5)N6CC(F)(F)F)cccn4n3)cn2)CC1 [Example 98, 1-(4-methylpiperazin-1-yl)-2-[4-[[8-[8-(2,2,2-trifluoroethyl)-3,8-diazabicyclo[3.2.1]octan-3-yl]-[1,2,4]triazolo[1,5-a]pyridin-2-yl]amino]pyrazol-1-yl]ethanone] | 2.1 | 4.1 |
| CSc1ccc(C(=O)N2C3CCC2CN(c2cccn4nc(Nc5cnn(CC(=O)N6CCN(C)CC6)c5)nc24)C3)cc1 [Example 99, 1-(4-methylpiperazin-1-yl)-2-[4-[[8-[8-(4-methylsulfanylbenzoyl)-3,8-diazabicyclo[3.2.1]octan-3-yl]-[1,2,4]triazolo[1,5-a]pyridin-2-yl]amino]pyrazol-1-yl]ethanone] | 1.6 | 5.4 |
| CSc1cccc(C(=O)N2C3CCC2CN(c2cccn4nc(Nc5cnn(CC(=O)N6CCN(C)CC6)c5)nc24)C3)c1 [Example 100, 1-(4-methylpiperazin-1-yl)-2-[4-[[8-[8-(3-methylsulfanylbenzoyl)-3,8-diazabicyclo[3.2.1]octan-3-yl]-[1,2,4]triazolo[1,5-a]pyridin-2-yl]amino]pyrazol-1-yl]ethanone] | 1.2 | 4.2 |
| CN1CCN(C(=O)Cn2cc(Nc3nc4c(N5CC6CCC(C5)N6Cc5cnc(CC(F)(F)F)s5)cccn4n3)cn2)CC1 [Example 101, 1-(4-methylpiperazin-1-yl)-2-[4-[[8-[8-[[2-(2,2,2-trifluoroethyl)thiazol-5-yl]methyl]-3,8-diazabicyclo[3.2.1]octan-3-yl]-[1,2,4]triazolo[1,5-a]pyridin-2-yl]amino]pyrazol-1-yl]ethanone] | 2.9 | 10.3 |
| CN1CCN(C(=O)Cn2cc(Nc3nc4c(N5CC6CCC(C5)N6C(=O)CC(N)C(F)(F)F)cccn4n3)cn2)CC1 (stereo not drawn) [Example 102, 3-amino-4,4,4-trifluoro-1-[3-[2-[[1-[2-(4-methylpiperazin-1-yl)-2-oxo-ethyl]pyrazol-4-yl]amino]-[1,2,4]triazolo[1,5-a]pyridin-8-yl]-3,8-diazabicyclo[3.2.1]octan-8-yl]butan-1-one] | 3.4 | 7.9 |
| CC(C(=O)N1CCN(C)CC1)n1cc(Nc2nc3c(N4CC5CCC(C4)N5C(=O)CCC(F)(F)F)cccn3n2)cn1 (stereo not drawn) [Example 103, 4,4,4-trifluoro-1-[3-[2-[[1-[1-methyl-2-(4-methylpiperazin-1-yl)-2-oxo-ethyl]pyrazol-4-yl]amino]-[1,2,4]triazolo[1,5-a]pyridin-8-yl]-3,8-diazabicyclo[3.2.1]octan-8-yl]butan-1-one] | 1.5 | 1.7 |
| CC(C(=O)N1CCN(C)CC1)n1cc(Nc2nc3c(N4CC5CCC(C4)N5C(=O)CCC(F)(F)F)cccn3n2)cn1 (stereo not drawn) [Example 104, 4,4,4-trifluoro-1-[3-[2-[[1-[1-methyl-2-(4-methylpiperazin-1-yl)-2-oxo-ethyl]pyrazol-4-yl]amino]-[1,2,4]triazolo[1,5-a]pyridin-8-yl]-3,8-diazabicyclo[3.2.1]octan-8-yl]butan-1-one] | 1.7 | 0.8 |
| CC(C(=O)N1CCN(C)CC1)n1cc(Nc2nc3c(N4CC5CCCC(C4)N5C(=O)CCC(F)(F)F)cccn3n2)cn1 (stereo not drawn) [Example 105, 4,4,4-trifluoro-1-[3-[2-[[1-[1-methyl-2-(4-methylpiperazin-1-yl)-2-oxo-ethyl]pyrazol-4-yl]amino]-[1,2,4]triazolo[1,5-a]pyridin-8-yl]-3,9-diazabicyclo[3.3.1]nonan-9-yl]butan-1-one] | 1 | 0.8 |
| CC(C(=O)N1CCN(C)CC1)n1cc(Nc2nc3c(N4CC5CCCC(C4)N5C(=O)CCC(F)(F)F)cccn3n2)cn1 (stereo not drawn) [Example 106, 4,4,4-trifluoro-1-[3-[2-[[1-[1-methyl-2-(4-methylpiperazin-1-yl)-2-oxo-ethyl]pyrazol-4-yl]amino]-[1,2,4]triazolo[1,5-a]pyridin-8-yl]-3,9-diazabicyclo[3.3.1]nonan-9-yl]butan-1-one] | 1.6 | 0.7 |
| CSc1ccc(S(=O)(=O)N2C3CCC2CN(c2cccn4nc(Nc5cnn(CC(=O)N6CCN(C)CC6)c5)nc24)C3)cc1 [Example 107, 1-(4-methylpiperazin-1-yl)-2-[4-[[8-[8-(4-methylsulfanylphenyl)-sulfonyl-3,8-diazabicyclo[3.2.1]octan-3-yl]-[1,2,4]triazolo[1,5-a]pyridin-2-yl]amino]pyrazol-1-yl]ethanone] | 0.4 | 0.8 |
| CN1CCN(C(=O)Cn2cc(Nc3nc4c(N5CC6CCC(C5)N6S(=O)(=O)Cc5ccccc5)cccn4n3)cn2)CC1 [Example 108, 2-[4-[[8-(8-benzylsulfonyl-3,8-diazabicyclo[3.2.1]octan-3-yl)-[1,2,4]triazolo[1,5-a]pyridin-2-yl]amino]pyrazol-1-yl]-1-(4-methylpiperazin-1-yl)ethanone] | 1 | 2.7 |
| CN1CCN(C(=O)Cn2cc(Nc3nc4c(N5CC6CCC(C5)N6CC5(CS(C)(=O)=O)CC5)cccn4n3)cn2)CC1 [Example 109, 1-(4-methylpiperazin-1-yl)-2-[4-[[8-[8-([1-(methylsulfonylmethyl)cyclopropyl]methyl]-3,8-diazabicyclo[3.2.1]octan-3-yl]-[1,2,4]triazolo[1,5-a]pyridin-2-yl]amino]pyrazol-1-yl]ethanone] | 4.8 | 7 |
| CN1CCN(C(=O)Cn2cc(Nc3nc4c(N5CC6CCC(C5)N6C(=O)NCC(F)(F)F)cccn4n3)cn2)CC1 [Example 110, 3-[2-[[1-[2-(4-methylpiperazin-1-yl)-2-oxo-ethyl]pyrazol-4-yl]amino]-[1,2,4]triazolo[1,5-a]pyridin-8-yl]-N-(2,2,2-trifluoroethyl)-3,8-diazabicyclo[3.2.1]octane-8-carboxamide] | 0.9 | 3.4 |
| CN1CCN(C(=O)Cn2cc(Nc3nc4c(N5CC6CCC(C5)N6S(=O)(=O)c5ccccc5Cl)cccn4n3)cn2)CC1 [Example 111, 2-[4-[[8-[8-(2-chlorophenyl)sulfonyl-3,8-diazabicyclo[3.2.1]octan-3-yl]-[1,2,4]triazolo[1,5-a]pyridin-2-yl]amino]pyrazol-1-yl]-1-(4-methylpiperazin-1-yl)ethanone] | 0.5 | 0.5 |
| CN1CCN(C(=O)Cn2cc(Nc3nc4c(N5CC6CCC(C5)N6S(=O)(=O)c5cccs5)cccn4n3)cn2)CC1 [Example 112, 1-(4-methylpiperazin-1-yl)-2-[4-[[8-[8-(2-thienylsulfonyl)-3,8-diazabicyclo[3.2.1]octan-3-yl]-[1,2,4]triazolo[1,5-a]pyridin-2-yl]amino]pyrazol-1-yl]ethanone] | 0.5 | 0.7 |
| CN1CCN(C(=O)Cn2cc(Nc3nc4c(N5CC6CCC(C5)N6c5ccc(Cl)cc5)cccn4n3)cn2)CC1 [Example 113, 2-[4-[[8-[8-(4-chlorophenyl)-3,8-diazabicyclo[3.2.1]octan-3-yl]-[1,2,4]triazolo[1,5-a]pyridin-2-yl]amino]pyrazol-1-yl]-1-(4-methylpiperazin-1-yl)ethanone] | 0.2 | 0.3 |
| CN1CCN(C(=O)Cn2cc(Nc3nc4c(N5CC6CCC(C5)N6C(=O)c5ccccc5Cl)cccn4n3)cn2)CC1 [Example 114] | 1.7 | 4.8 |
| CSc1ccccc1C(=O)N1C2CCC1CN(c1cccn3nc(Nc4cnn(CC(=O)N5CCN(C)CC5)c4)nc13)C2 [Example 115] | 1 | 2.1 |
| CN1CCN(C(=O)Cn2cc(Nc3nc4c(N5CC6CCC(C5)N6C(=O)C5(C#N)CCC5)cccn4n3)cn2)CC1 [Example 116, 1-[3-[2-[[1-[2-(4-methylpiperazin-1-yl)-2-oxo-ethyl]pyrazol-4-yl]amino]-[1,2,4]triazolo[1,5-a]pyridin-8-yl]-3,8-diazabicyclo[3.2.1]octane-8-carbonyl]cyclobutane-carbonitrile] | 2.5 | 3.5 |
| CCc1cnn([C@@]2(CC#N)[C@@H]3CC[C@H]2CN(c2cccn4nc(Nc5cnn(CC(=O)N6CCN(C)CC6)c5)nc24)C3)c1 [Example 117, 2-[(1R,5S)-8-(4-ethylpyrazol-1-yl)-3-[2-[[1-[2-(4-methylpiperazin-1-yl)-2-oxo-ethyl]pyrazol-4-yl]amino]-[1,2,4]triazolo[1,5-a]pyridin-8-yl]-3-azabicyclo[3.2.1]octan-8-yl]acetonitrile] | 18.3 | 24.2 |
